“Also recorded” adds a separate entry of the source.
What was measured:
[1] = system: T. cruzi epimastigotes, wild-type (WT); experiment: T. cruzi epimastigote resazurin viability assay, wild-type; assay type: cell-based, Trypanosoma cruzi; details: CL-Brener, 64 h + 6 h resazurin; means ± SD (n = 4)
Description: T. cruzi epimastigotes were seeded at 1.25 x 10^6 cells/mL in a 96-well plate in the presence of varying concentrations of test compounds. Following a 64-hour incubation, 15 μL of a resazurin solution (Sigma-Aldrich; 1.1 mg/mL in PBS). […] Each assay was performed in at least triplicate in parallel to the known trypanocidal agent nifurtimox.

C2C12 cells = experiment: C2C12 host cell cytotoxicity (cell ratio) in HCS assay; assay type: cell-based, Mouse; details: for Selectivity Index: CC50 cell line (C2C12)/EC50 T. cruzi
Description: (§1) For the evaluation of the activity against T. cruzi amastigotes, high-content screening (HCS) was designed. In summary, 100 μL of host C2C12 cells (ATCC) were seeded in clear bottom black 96-well plates at a density of 2.5 x 10^4 cells/mL (2.5 × 10^3 cells/well). […] The parasites were allowed to infect for a 24 hr period, after which compounds were added in a volume of 50 μL. […] After 72 hrs of compound incubation, the wells were fixed with 4% paraformaldehyde for 15 to 30 mins. The plates were then washed once with deionized water and stained with a solution of DAPI (3 μM) for 1 hour. Plates were imaged in an INCell 2000 (GE Healthcare) high-content analyser by taking 16 pictures per well at 20 X objective amplification. Images were analysed with INCell Developer software (GE Healthcare) using the segmentation of host cell nuclei and parasite kinetoplast DNA. The measurement output used was the average number of parasites per cell calculated by the ratio of host cell nuclei/parasite kinetoplast DNA.

[2] = system: T. cruzi epimastigotes overexpressing TcSir2rp1 (OE) with the pTcINDEX; experiment: microbe, parasite or virus in culture; assay type: cell-based; details: Trypanosoma cruzi, read-out: EC50 against T. cruzi epimastigotes OE
Description: For the generation of transgenic cell lines, 15 μg of the constructs were digested overnight (SpeI for the pTcINDEX construct; NotI for the knockout constructs), precipitated with sodium acetate / ethanol, and introduced into 1.5 x 10^7 epimastigote cells in the logarithmic phase of growth via transfection using an AMAXA Nucleofector II device (program V-33) with the Human T-cell nucleofector kit (Lonza). Parasites were suspended in fresh growth medium and incubated for 24-hrs to allow for the expression of drug selectable markers, prior to the addition of appropriate antibiotic (Blasticidin S (Thermo Fisher Scientific; 10 μg/mL); Hygromycin B (Formedium; 100 μg/mL); and Puromycin (Calbiochem; 5 μg/mL). Cells were then incubated for a further four- to six-weeks to allow for the selection of transgenic parasites and then genetically verified by PCR using ORF and drug selection primers.
The TcSir2rp1 open reading frame (TriTryp accession number TcCLB.508207.150) was amplified from CL-Brener genomic DNA using KOD polymerase (Novagen). The resulting PCR product encoding the full-length ORF was cloned directly into the T. cruzi expression vector, pTcINDEX [49], using NotI and BamHI restriction sites.
T. cruzi epimastigotes were seeded at 1.25 x 10^6 cells/mL in a 96-well plate in the presence of varying concentrations of test compounds. Following a 64-hour incubation, 15 μL of a resazurin solution (Sigma-Aldrich; 1.1 mg/mL in PBS). Following an additional 6-hr incubation, cell viability was determined by measuring the fluorescence of each culture with a BioTek FLX800 Fluorescence Microplate Reader (excitation and emission wavelengths of 540/535 nm and 590/610 nm, respectively) and associated Gen5 Reader Control 2.0 software. EC50 values were determined by nonlinear regression to a sigmoidal dose-response curve using GraFit software (Version 5.0, Erithacus Software). Each assay was performed in at least triplicate in parallel to the known trypanocidal agent nifurtimox.

TcSir2rp1 = TcSir2rp1 (Trypanosoma cruzi, UniProt Q4DVL9); experiment: TcSir2rp1 NAD+-dependent deacetylase fluorimetric assay (CycLex kit); assay type: biochemical; details: for Inhibition of NAD+-dependent deacetylase activity of TcSir2rp1 / inhibition at 10 µM: single dose 10 μM, 200 μM NAD+, 10 μM peptide
TcSir2rp1, sequence (Q4DVL9 entry or part of it): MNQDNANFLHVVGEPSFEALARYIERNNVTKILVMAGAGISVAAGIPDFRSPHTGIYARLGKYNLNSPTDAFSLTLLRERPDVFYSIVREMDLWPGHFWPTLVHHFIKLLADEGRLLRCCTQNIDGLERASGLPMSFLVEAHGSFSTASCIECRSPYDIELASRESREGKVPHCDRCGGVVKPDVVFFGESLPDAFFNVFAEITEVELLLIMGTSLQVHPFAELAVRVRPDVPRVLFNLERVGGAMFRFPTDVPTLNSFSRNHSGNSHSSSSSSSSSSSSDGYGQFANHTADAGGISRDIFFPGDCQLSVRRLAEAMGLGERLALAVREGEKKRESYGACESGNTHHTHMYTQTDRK
Description: The deacetylase activity was measured using the commercial SIRT1/Sir2 Deacetylase Fluorometric Assay Kit (CycLex,Japan) according to the manufacturer’s recommendations. Briefly, fluorescence emission after digestion of deacetylated substrates by a lysine specific endopeptidase was measured in a fluorometric plate reader (Synergy HT, BioTek) with excitation and emission wavelengths set at 340 and 440 nm, respectively, every 30 seconds for 1 hour. The slope of the linear part of the reaction was calculated and used as readout of enzyme activity. […]
(§2) A variety of the bisnaphthalimidopropyl (BNIPs) derivatives, as well as the newly synthetized derivatives were evaluated as potential TcSir2rp1 inhibitors. The enzymatic reactions were performed using a commercially available CycLex SIRT1/Sir2 deacetylase fluorimetric kit (CycLex Co. Ltd., Nagano, Japan) in the absence and presence of the various inhibitors, 200 μM NAD^+ and 10 μM of peptide substrate as previously described.
as §2, with “µM” for “μM”

[3] = C2C12 host cell cytotoxicity (cell ratio) in HCS assay; assay type: cell-based, Mouse; details: mouse, cell ratio, 72 h; read-out: C2C12 Cytotoxicity (CC50 ± SD)
Description: as §1

T. cruzi amastigotes = experiment: High-content screening assay on intracellular T. cruzi amastigotes; assay type: cell-based, Trypanosoma cruzi; details: Trypanosoma cruzi, C2C12, 72 h, Y strain in C2C12 host cells, 72 h; read-out: Anti-T. cruzi Activity Amastigotes (EC50 ± SD)
Description: For the evaluation of the activity against T. cruzi amastigotes, high-content screening (HCS) was designed. In summary, 100 μL of host C2C12 cells (ATCC) were seeded in clear bottom black 96-well plates at a density of 2.5 x 10^4 cells/mL (2.5 × 10^3 cells/well). After 24 hrs, 50 μL of Y strain tissue culture-derived trypomastigotes were used to infect the host cells at a density of 7.5 x 10^5/mL (3.75 x 10^4 parasites/well). The parasites were allowed to infect for a 24 hr period, after which compounds were added in a volume of 50 μL. […] After 72 hrs of compound incubation, the wells were fixed with 4% paraformaldehyde for 15 to 30 mins. The plates were then washed once with deionized water and stained with a solution of DAPI (3 μM) for 1 hour. Plates were imaged in an INCell 2000 (GE Healthcare) high-content analyser by taking 16 pictures per well at 20 X objective amplification. Images were analysed with INCell Developer software (GE Healthcare) using the segmentation of host cell nuclei and parasite kinetoplast DNA. The measurement output used was the average number of parasites per cell calculated by the ratio of host cell nuclei/parasite kinetoplast DNA.
In this assay, the compounds are incubated for 72 hours with cells previously infected with wild-type trypomastigotes for 24 hours. The readout was done by comparing the average number of amastigotes per cell that developed by the end of the incubation period. The quality of the assay was statistically evaluated by the calculation of the z-factor [75], that represents the reliability of the assay in distinguishing positive controls confidently from negative controls. Varying from 0 to 1, z-factor values higher than 0.5 are considered acceptable for drug screening. The z-factor obtained was 0.68, validating the use of the assay (S3B Fig).

Solubility = assay type: physicochemical; details: limits the concentration tested
T. cruzi Y strain (Luc+) = experiment: Mouse model of T. cruzi infection, bioluminescence imaging; assay type: in vivo, BALB/c mice; details: 100 mg/kg/day per os, 4 days
Description: To evaluate BNIPSpd (9) efficacy in vivo, five- to six-week-old female BALB/c mice (Charles River) and infected with T. cruzi trypomastigotes expressing luciferase. Parasites were collected from the supernatants of a monolayer of Vero infected cells, washed and suspended in PBS-glucose 0.2%, and injected intraperitoneally (1 x 10^4 per mouse). After 7 days of infection, mice were treated with drugs for 4 consecutive days orally with (benznidazole in 20% Kolliphor HS 15) or intravenously with (BNIPSpd (9) in 10% DMSO) at a dose of 100 or 5 mg/kg/day, respectively. Infection and treatment efficiency were evaluated following subcutaneous injection of 2.1 mg of luciferin and through live imaging using an IVIS Lumina LT (Perkin Elmer). Images of the animals were analysed using the Living Image software (Perkin Elmer).
Supplementary file pntd.0006180.s006.tif: S5 Fig In vivo efficacy testing of BNIPSpd (9). A) Mice were infected with 10^4 Luc^+ trypomastigotes by intraperitoneal injection. […] In the lower panel, bioluminescence signal of whole mice represented in average radiance (photons/sec/cm^2/sr) quantified before and after treatment. […] B) Snapshot Pharmacokinetics of BNIPSpd (9) in BALB/c mice by quantification of BNIPSpd (9) in the blood of mice by UHPLC-MS/MS ESI+ at different time-points after administration of a 5 mg/kg dose by intravenous injection. […]

In the case of `O=C1c2cccc3cccc(c23)C(=O)N1CCCNCCCCCNCCCN1C(=O)c2cccc3cccc(c23)C1=O` [Compound 2], the “EC50 against T. cruzi epimastigotes WT” value [1] is reported as “just as potent as nifurtimox”, the “Host cell toxicity in primary screening” value (C2C12 cells; single dose 2.5 μM) is reported as “high cytotoxicity” and the EC50 [2] is reported as 7940 ± 780 nM. For the same compound, the inhibition at 50 µM (TcSir2rp1; 50 μM) was 55 ± 4%, the “Inhibition of NAD+-dependent deacetylase activity of TcSir2rp1” value (TcSir2rp1) was “statistically significant inhibition” and the inhibition at 10 µM (TcSir2rp1) was 42 ± 13%.
With `CC1CS(=O)(=O)CCN1/N=C/c1ccc([N+](=O)[O-])o1` (stereo not drawn) [Nifurtimox, nifurtimox, reference compound] the EC50 [2] was 2240 ± 140 nM.
With `O=C1c2cccc3cccc(c23)C(=O)N1CCCNCCCCCCCCCCNCCCN1C(=O)c2cccc3cccc(c23)C1=O` [Compound 7] the “EC50 against T. cruzi epimastigotes WT” value [1] was “just as potent as nifurtimox” and the EC50 [2] was 2970 ± 600 nM.
For `O=C1c2cccc3cccc(c23)C(=O)N1CCCNCCCCCCCCCNCCCN1C(=O)c2cccc3cccc(c23)C1=O` [Compound 6], the “EC50 against T. cruzi epimastigotes WT” value [1] was “moderate activity”, the CC50 at 72 h [3] was 2350 ± 770 nM and the “Selectivity Index” value (C2C12 cells) was 1.7. The EC50 (T. cruzi amastigotes) was 1450 ± 370 nM and the EC50 [2] was 113000 ± 8200 nM.
In the case of `O=C1c2cccc3cccc(c23)C(=O)N1CCCNCCCCCCNCCCN1C(=O)c2cccc3cccc(c23)C1=O` [Compound 3], the “EC50 against T. cruzi epimastigotes WT” value [1] is reported as “moderate activity”, the “Solubility in assay (qualitative)” value (Solubility) is reported as “low solubility; also recorded: poor solubility” and the EC50 [2] is reported as 102000 ± 9900 nM. For the same compound, the inhibition at 20 µM (TcSir2rp1) was 34 ± 11%, the “Inhibition of NAD+-dependent deacetylase activity of TcSir2rp1” value (TcSir2rp1) was “statistically significant inhibition” and the inhibition at 10 µM (TcSir2rp1) was 31 ± 8%.
With `O=C(Cn1ccnc1[N+](=O)[O-])NCc1ccccc1` [Benznidazole, benznidazole, reference compound] the “Reduction in the bioluminescence signal compared to vehicle” value (T. cruzi Y strain (Luc+)) was 700 fold, the CC50 at 72 h [3] was over 100000 nM and the “Selectivity Index” value (C2C12 cells) was over 81.0. It also gave an EC50 (T. cruzi amastigotes) of 1230 ± 300 nM.
